Measured values as given in patent US20140221469A1, “PHYTOCANNABINOIDS FOR USE IN THE TREATMENT OF CANCER” (Otsuka Pharmaceutical Co., Ltd., priority 2011, published 2014).
Like-named read-outs stand apart in the source and are kept apart here.

Experiments:
U87 human glioma cells = test: MTT colorimetric cell viability assay, U87; assay type: cell-based; conditions: for Effect on tumour cell viability (MTT test), alone / Effect of CB1 antagonist on inhibition of cell proliferation / Effect of CB2 antagonist on inhibition of cell proliferation / Effect of TRPV1 vanilloid antagonist on inhibition of cell proliferation: U87; for IC50: Homo sapiens, U-87 MG, 24 h, read-out: IC50, drop of mitochondrial oxidative metabolism (MTT test); for Effect of CB1 antagonist on inhibition of cell proliferation: AM 251 (0.5 μM) added; for Effect of CB2 antagonist on inhibition of cell proliferation: SR 144528 (0.5 μM) for CBG, AM630 (0.5 μM) for CBDV; for Effect of TRPV1 vanilloid antagonist on inhibition of cell proliferation: capsazepine (0.625 μM) added
Description: The human glioma cell line U87-MG was obtained from the American Type Culture Collection (Rockville, USA). Cells were maintained in DMEM supplemented with 10% heat-inactivated foetal bovine serum (Euroclone, Italy), 1% glutamine, 1% antibiotic mixture, 1% sodium pyruvate, 1% non-essential amino acids, at 37° C. in a humidified 5% CO2 atmosphere. Cells were seeded in complete medium. After a 24 h incubation, the medium was replaced by serum-free medium (ITSS medium), consisting of DMEM supplemented with 5 μg/ml insulin, 5 μg/ml transferrin, and 5 […].
(§1) To determine the effects of the phytocannabinoids upon cell viability, the applicants employed a MTT colorimetric assay ([3-(4,5-dimethyl-2-thiazolyl)-2,5-diphenyl-2H tetrazolium bromide]; Sigma-Aldrich). Briefly, U87 human glioma cells were seeded in a 96-well flat bottom multi-well at a density of 8000 cells/well. After 24 h, cells were treated with THCV, CBDV and CBG and/or receptor antagonists at the indicated concentrations. At the end of the incubation with the drugs, MTT (0.5 mg/ml final concentration) was added to each well and the incubation was then continued for 4 h. The insoluble formazan crystals were solubilized by the addition of 100 μl of 100% dimethyl sulfoxide. The plates were read at 570 nm using an automatic microtiter plate reader.

U87 cells [1] = test: Evaluation of apoptosis (propidium iodide flow cytometry), U87; assay type: cell-based, human; conditions: 24 h
Description: 3.4×10^5 tumour cells were cultured in 6 well-plates in the presence or absence of CBDV or THCV for 24 h, as described above and the percentage of apoptotic cells on the total cell population (adhering/detached cells) was evaluated. Briefly, cells were collected, washed, and centrifuged at 1300 rpm. They were then fixed in ethanol 70% for at least 30 min at −20° C. After centrifugation, the cell pellet was gently re-suspended in 1 ml of PBS solution containing propidium iodide (PI, 50 μg/ml) and RNAse (20 μg/ml). Cells were analyzed after a minimum of 30 min of incubation in the dark at room temperature, and apoptosis was detected in individual cells using a flow cytometer (equipped with a single 488-nm argon laser; BD Biosciences, San Jose, Calif.) by reduced fluorescence of PI in apoptotic nuclei.

[2] = system: subcutaneously implanted U87 human glioma cells; conditions: nude mice, subcutaneous, 0.5 mg/mouse; cited from earlier work
U87 glioma cells = conditions: Boyden chamber; cited from earlier work
[3] = system: human breast cell line MDA MB 231; test: Migration in breast cell line MDA-MB 231; assay type: cell-based; conditions: MDA-MB 231 breast cell line
U87 cells [4] = test: Matrigel cell invasion assay, U87; assay type: cell-based, human
Description: (§2) BD BioCoat matrigel invasion chambers (BD, USA) were used to examine the ability of U87 cells to penetrate the extracellular matrix. U87 cells (2.5×10^4 cells) were re-suspended in 500 μl of serum-free medium in the presence of the phytocannabinoids, and added to the upper chamber. The lower chamber was filled with 0.75 ml of complete medium as chemo-attractant. Cells were then incubated for 22 h at 37° C. After removal of cells on the upper surface of the membrane, cells on the lower surface were fixed in 100% methanol and stained with Diff-Quick stain (Medion Diagnostics, USA). Sixteen fields of cells were counted randomly in each well under a light microscope at 200× magnification. Data was expressed as the percentage of invasive cells as compared with the control. All the experiments were performed in triplicates and results were expressed as mean±SEM of three independent experiments.
The matrigel invasion assay was carried out to further examine the effect of THCV on the invasiveness on U87 glioma cells.

T98G cell line = test: MTT test, T98G; assay type: cell-based, human; conditions: for Effect of pre-treatment with CB1 antagonist on anti-proliferative effect: AM251; for Effect of pre-treatment with CB2 antagonist on anti-proliferative effect: AM630
Description: as §1
(§3) In a further set of experiments, Examples 8-10 the compounds were evaluated on a different cell line, T98G, which was obtained from the American Type Culture Collection (Rockville, USA). The protocols employed were as described above.

U87-MG cells = test: Cell motility assay (Boyden chamber), U87-MG; assay type: cell-based, human
Description: (§4) BD BioCoat Control Inserts (BD, USA) were used to examine the ability of U87-MG cells to migrate through an 8.0 micron pore size PET membrane. U87-MG cells (2.5×10^4 cells) were re-suspended in 500 μl of serum-free medium in presence of phytocannabinoids, and added to the upper chamber. The lower chamber was filled with 0.75 ml of complete medium as chemo-attractant. Cells were then incubated for 22 h at 37° C. After removal of cells on the upper surface of the membrane, cells on the lower surface were fixed in 100% methanol and stained with Diff-Quick stain (Medion Diagnostics, USA). Sixteen fields of cells were counted randomly in each well under a light microscope at 200× magnification. Data was expressed as the percentage of migrating cells as compared with the control. All the experiments were performed in triplicates and results were expressed as mean±SEM of three independent experiments.
The effect of THCV on U87 glioma cells invasion and motility was determined by Boyden chamber assay. […] The effect was even evident at concentrations as low as 0.25 μM.

T98G glioma cells [5] = test: Matrigel invasion assay, T98G; assay type: cell-based, human
Description: as §2, §3
The matrigel invasion assay was carried out to further examine the effect of the CBDV on the invasiveness of T98G glioma cells.

T98G cell = test: Trypan Blue test, T98G; assay type: cell-based, human
Description: To further confirm the ability of CBDV, CBG and THCV to inhibit T98G cell growth, a Trypan Blue test was also conducted.

T98G glioma cells [6] = test: Cell migration (Boyden chamber), T98G; assay type: cell-based, human; conditions: for Inhibition of migration of the cells: irrespective of the concentration used
Description: as §4, §3
The effect of CBDV on T98G glioma cells invasion and motility was determined by Boyden chamber assay.

[7] = system: recurrent glioblastoma multiforme; conditions: nine patients, intra-tumoural; 95% confidence interval: 15-33; cited from earlier work
[8] = Homo sapiens, 24 h, read-out: IC50, drop of mitochondrial oxidative metabolism (MTT test)

C=C(C)[C@@H]1CCC(C)=C[C@H]1c1c(O)cc(CCCCC)cc1O [CBD, Cannabidiol, reference compound]
Effect on tumour cell viability (MTT test), alone (U87 human glioma cells; 5 μM): ineffective | Effect on tumour cell viability (MTT test), alone (U87 human glioma cells; 9 μM): effective | Apoptosis, alone (U87 cells [1]; 5 μM): did not cause any apoptosis | Apoptosis, alone (U87 cells [1]; 9 μM): significant induction of apoptosis | Growth of subcutaneously implanted U87 human glioma cells [2]: significantly inhibited the growth | Migration of U87 glioma cells (U87 glioma cells): concentration-dependent inhibition

C=C(C)[C@@H]1CCC(C)=C[C@H]1c1c(O)cc(CCCCC)c(C(=O)O)c1O [CBDA, Cannabidiolic acid]
Effect on migration [3]: inhibit migration in a statistically significant manner

C=C(C)[C@@H]1CCC(C)=C[C@H]1c1c(O)cc(CCC)cc1O [CBDV, Cannabidivarin]
IC50 (U87 human glioma cells): 24.2 µM | Effect of CB1 antagonist on inhibition of cell proliferation (U87 human glioma cells): able to significantly increase the inhibitory action of CBDV on glioma cell growth at 19, 40, and 50 μM concentrations | Effect of CB2 antagonist on inhibition of cell proliferation (U87 human glioma cells): able to significantly increase the inhibitory action of CBDV on glioma cell growth at 19, 40, and 50 μM concentrations | Effect of TRPV1 vanilloid antagonist on inhibition of cell proliferation (U87 human glioma cells): a significant increase of the inhibitory action of CBDV was seen only at 14 and 19 μM | Concentration as low as which the anti-invasive effect was evident (U87 cells [4]; U87): 1 µM | Decrease of the number of invading cells, average effect (U87 cells [4]; U87, across the concentrations tested): 45% | IC50 (T98G cell line; 24 h after cannabinoid exposure): 27 µM | Effect of pre-treatment with CB1 antagonist on anti-proliferative effect (T98G cell line): exhibited some sensitivity | Effect of pre-treatment with CB2 antagonist on anti-proliferative effect (T98G cell line): exhibited some sensitivity | IC50 (T98G cell line; Homo sapiens, 24 h, read-out: IC50, drop of mitochondrial oxidative metabolism (MTT test), T98G, 24 h after cannabinoid exposure): 27.1 µM | Concentration as low as which the anti-migratory effect was evident (U87-MG cells): 1 µM | Effect on cell migration (U87-MG cells): significantly inhibited the migration | Inhibition of cell invasiveness (T98G glioma cells [5]; concentration range from 0.5 to 12 μM): about 70% | Cell viability, Trypan Blue test (T98G cell): inhibited cells viability in the same dose range as for MTT test | Concentration as low as which the anti-migratory effect was evident (T98G glioma cells [6]): 0.5 µM | Inhibition of migration of the cells (T98G glioma cells [6]): 55%

CCCCCc1cc(O)c(C/C=C(\C)CCC=C(C)C)c(O)c1 [CBG, Cannabigerol]
IC50 (U87 human glioma cells): 12.1 µM | Effect of CB1 antagonist on inhibition of cell proliferation (U87 human glioma cells): able to antagonize the inhibitory action of the phytocannabinoid on glioma cells growth only at 19 and 25 μM concentrations | Effect of CB2 antagonist on inhibition of cell proliferation (U87 human glioma cells): failed to antagonize the anti-proliferative effect | Effect of TRPV1 vanilloid antagonist on inhibition of cell proliferation (U87 human glioma cells): failed to antagonize the anti-proliferative effect | Effect on cell invasion (U87 cells [4]; U87): did not inhibit | Effect of pre-treatment with CB1 antagonist on anti-proliferative effect (T98G cell line): unaffected | Effect of pre-treatment with CB2 antagonist on anti-proliferative effect (T98G cell line): unaffected | IC50 (T98G cell line; [8]): 17.3 µM | Effect on cell migration (U87-MG cells): did not inhibit | Effect on cell invasion (T98G glioma cells [5]): did not inhibit | Cell viability, Trypan Blue test (T98G cell): inhibited cells viability in the same dose range as for MTT test | Effect on cell migration (T98G glioma cells [6]): did not inhibit

CCCCCc1cc(O)c2c(c1)OC(C)(C)[C@@H]1CCC(C)=C[C@@H]21 [THC, Tetrahydrocannabinol]
Median survival from the beginning of cannabinoid administration [7]: 24 weeks

CCCCCc1cc2c(c(O)c1C(=O)O)[C@@H]1C=C(C)CC[C@H]1C(C)(C)O2 [THCA, Tetrahydrocannabinolic acid]
Effect on migration [3]: inhibit migration in a statistically significant manner

CCCc1cc(O)c2c(c1)OC(C)(C)[C@@H]1CCC(C)=C[C@@H]21 [THCV, Tetrahydrocannabivarin]
IC50 (U87 human glioma cells): 13.8 µM | Effect on tumour cell viability (MTT test), alone (U87 human glioma cells; 5 μM): ineffective | Effect on tumour cell viability (MTT test), alone (U87 human glioma cells; 10 μM): effective | Effect of CB1 antagonist on inhibition of cell proliferation (U87 human glioma cells): none of the antagonists was effective in reversing and/or potentiating the effect | Effect of CB2 antagonist on inhibition of cell proliferation (U87 human glioma cells): none of the antagonists was effective in reversing and/or potentiating the effect | Effect of TRPV1 vanilloid antagonist on inhibition of cell proliferation (U87 human glioma cells): none of the antagonists was effective in reversing and/or potentiating the effect | Apoptosis, alone (U87 cells [1]; 5 μM): did not cause any apoptosis | Apoptosis, alone (U87 cells [1]; 10 μM): did not cause any apoptosis | inhibition at 5 µM (U87 cells [4]; Homo sapiens, U-87 MG, read-out: Inhibition of cell invasiveness): 55% | Inhibition of cell invasiveness (U87 cells [4]; U87, 0.5 and 1 μM): about 35% | Effect of pre-treatment with CB1 antagonist on anti-proliferative effect (T98G cell line): unaffected | Effect of pre-treatment with CB2 antagonist on anti-proliferative effect (T98G cell line): unaffected | IC50 (T98G cell line; [8]): 16.1 µM | Concentration as low as which the anti-migratory effect was evident (U87-MG cells): 0.25 µM | Inhibition of migration of the cells (U87-MG cells; irrespectively of the concentrations used, 22 h): 55% | Effect on cell invasion (T98G glioma cells [5]): U-shaped dose-response curve | Cell viability, Trypan Blue test (T98G cell): inhibited cells viability in the same dose range as for MTT test | Inhibition of migration of the cells (T98G glioma cells [6]): about 50%
